One experiment relates to nicotinic receptors. Put plainly: Determination of rubidium ion release (rubidium ion flux assay). Format: cell-based. As for the experimental part: Determination of Rubidium Ion Release
Rubidium release was measured using the techniques described in Bencherif et al., JPET, 279: 1413-1421 (1996). Reported EC50 values are expressed in nM, and Emax values represent the amount of rubidium ion released relative to 300 uM tetramethylammonium ion, on a percentage basis.

Experiment [1] has as its system ganglionic-type nicotinic acetylcholine receptors. Put plainly: Determination of interaction with ganglion receptors. Format: cell-based. As to conditions: at a concentration of 100 uM; relative to (S)-(-)-nicotine. From the text: By this is meant that a particular dose of compound resulting in prevention and/or treatment of a CNS disorder, is essentially ineffective in eliciting activation of certain ganglionic-type nicotinic receptors. […] As such, such compounds have poor ability to cause isotopic rubidium ion flux through nicotinic receptors in cell preparations derived from the adrenal gland. Generally, typical preferred compounds useful in carrying out the present invention activate isotopic rubidium ion flux by less than 10 percent, often by less than 5 percent, of that maximally provided by S(−) nicotine.
Determination of Interaction with Ganglion Receptors
The determination of the interaction of the compounds with ganglionic receptors was carried out in accordance with the techniques described in U.S. Pat. No. 5,597,919 to Dull et al. The maximal activation for individual compounds (Emax) was determined as a percentage of the maximal activation induced by (S)-(−)-nicotine. Reported Emax values represent the amount released relative to (S)-(−)-nicotine on a percentage basis.

Experiment [2] deals with T1, muscle-type nicotinic acetylcholine receptors (Homo sapiens, UniProt P02708+P07510+Q07001).
T1 construct: cell preparations expressing muscle-type nicotinic acetylcholine receptors; endogenous in cells
Put plainly: Determination of interaction with muscle receptors. Format: cell-based. As to conditions: for Emax: read-out: Emax at muscle-type receptors. Also noted: Emax: dose or concentration left out as unconfirmed. The text has this:
The compounds of the present invention, when employed in effective amounts in accordance with the method of the present invention, lack the ability to elicit activation of nicotinic receptors of human muscle to any significant degree. […] Generally, typical preferred compounds useful in carrying the present invention activate isotopic rubidium ion flux by less than 10 percent, often by less than 5 percent, of that maximally provided by S(−) nicotine.
Determination of Interaction with Muscle Receptors
The determination of the interaction of the compounds with muscle receptors was carried out in accordance with the techniques described in U.S. Pat. No. 5,597,919 to Dull et al. The maximal activation for individual compounds (Emax) was determined as a percentage of the maximal activation induced by (S)-(−)-nicotine. Reported Emax values represent the amount released relative to (S)-(−)-nicotine on a percentage basis.

The test system of experiment [3] is nicotinic cholinergic receptors that modulate dopamine release. Description: Determination of dopamine release. The experiment is classed as cell-based. As for the experimental part:
Determination of Dopamine Release
Dopamine release was measured using the techniques described in U.S. Pat. No. 5,597,919 to Dull et al. Release is expressed as a percentage of release obtained with a concentration of (S)-(−)-nicotine resulting in maximal effects. Reported EC50 values are expressed in nM, and Emax values represent the amount released relative to (S)-(−)-nicotine on a percentage basis.

The subject of the next experiment is Rat brain synaptosomes. Description: Neurotransmitter release from brain synaptosomes. As to conditions: 10 M of ligand, percentage of release with 10 M (S)-(-)-nicotine or 300 MTMA. Format: cell-based. As for the experimental part: Neurotransmitter Release from Brain Synaotosomes
Neurotransmitter release was measured using techniques similar to those previously published (Bencherif M, et al.:. JPET 279: 1413-1421, 1996).
Rat brain synaptosomes were prepared as follows: Female Sprague Dawley rats (100-200 g) were killed by decapitation after anesthesia with 70% CO2. Brains are dissected, and hippocampus, striatum, and thalamus isolated, and homogenized in 0.32 M sucrose containing 5 mM HEPES pH 7.4 using a glass/glass homogenizer. The tissue was then centrifuged for 1000×g for 10 minutes and the pellet discarded. The supernatant was centrifuged at 12000×g for 20 minutes. The resultant pellet was re-suspended in perfusion buffer (128 mM NaCl, 1.2 mM KH2PO4, 2.4 mM KCl, 3.2 mM CaCl2, 1.2 mM MgSO4, 25 mM HEPES, 1 mM Ascorbic acid, 0.01 mM pargyline HCl and 10 mM glucose pH 7.4) and centrifuged for 15 minutes at 25000×g. The final pellet was resuspended in perfusion buffer and placed in a water bath (37° C.) for 10 minutes. Radiolabeled neurotransmitter is added (30 L ^3H DA, 20 L ^3H NE, 10 L ^3H glutamate) to achieve a final concentration of 100 nM, vortexed and placed in a water bath for additional 10 minutes. Tissue-loaded filters is placed onto 11-mm diameter Gelman A/E filters on an open-air support. After a 10-minute wash period, fractions are collected to establish the basal release and agonist applied in the perfusion stream. Further fractions were collected after agonist application to re-establish the baseline. The perfusate was collected directly into scintillation vials and released radioactivity was quantified using conventional liquid scintillation techniques. Release of neurotransmitter was determined in the presence of […] of various ligands and was expressed as a percentage of release obtained with a concentration of 10 M (S)-(−)-nicotine or 300 MTMA resulting in maximal effects.

The next experiment addresses CNS nicotinic receptors (Rattus norvegicus, UniProt P09483+P12390). Put plainly: Determination of binding to relevant receptor sites. As to conditions: inhibition constants calculated from IC50 values by the method of Cheng et al. As for the experimental part:
Determination of Binding to Relevant Receptor Sites
Binding of the compounds to relevant receptor sites was determined in accordance with the techniques described in U.S. Pat. No. 5,597,919 to Dull et al. Inhibition constants (Ki values), reported in nM, were calculated from the IC50 values using the method of Cheng et al., Biochem, Pharmacol. 22:3099 (1973).

Setting [4] is: rubidium ion released relative to 300 uM tetramethylammonium ion.
The mark [5] stands for this setting: amount released relative to (S)-(-)-nicotine.
The mark [6] stands for this setting: at a concentration of 100 uM, relative to (S)-(-)-nicotine.

The text below walks through data of patent US6455554B1, “Oxopyridinyl pharmaceutical compositions and methods for use” (Targacept, Inc., priority 1999, dated 2002).

Values joined by “and” are separate entries in the source; they are usually repeats but may differ in a detail not shown here. Identical values can stand only once.

T1 sequence (P02708 21-457): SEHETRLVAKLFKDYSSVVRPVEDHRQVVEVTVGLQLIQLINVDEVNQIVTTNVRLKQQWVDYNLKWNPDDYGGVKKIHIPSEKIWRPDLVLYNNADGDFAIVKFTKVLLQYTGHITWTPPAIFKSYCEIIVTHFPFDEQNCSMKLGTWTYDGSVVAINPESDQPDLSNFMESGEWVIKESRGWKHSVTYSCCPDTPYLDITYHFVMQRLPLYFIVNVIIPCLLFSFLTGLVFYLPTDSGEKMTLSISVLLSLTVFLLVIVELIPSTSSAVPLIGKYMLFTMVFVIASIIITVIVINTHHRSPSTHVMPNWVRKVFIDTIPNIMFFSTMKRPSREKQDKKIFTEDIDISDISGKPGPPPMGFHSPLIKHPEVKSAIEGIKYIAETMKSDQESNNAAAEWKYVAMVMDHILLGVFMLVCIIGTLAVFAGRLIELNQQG
T1 sequence (P11230 24-501 partner): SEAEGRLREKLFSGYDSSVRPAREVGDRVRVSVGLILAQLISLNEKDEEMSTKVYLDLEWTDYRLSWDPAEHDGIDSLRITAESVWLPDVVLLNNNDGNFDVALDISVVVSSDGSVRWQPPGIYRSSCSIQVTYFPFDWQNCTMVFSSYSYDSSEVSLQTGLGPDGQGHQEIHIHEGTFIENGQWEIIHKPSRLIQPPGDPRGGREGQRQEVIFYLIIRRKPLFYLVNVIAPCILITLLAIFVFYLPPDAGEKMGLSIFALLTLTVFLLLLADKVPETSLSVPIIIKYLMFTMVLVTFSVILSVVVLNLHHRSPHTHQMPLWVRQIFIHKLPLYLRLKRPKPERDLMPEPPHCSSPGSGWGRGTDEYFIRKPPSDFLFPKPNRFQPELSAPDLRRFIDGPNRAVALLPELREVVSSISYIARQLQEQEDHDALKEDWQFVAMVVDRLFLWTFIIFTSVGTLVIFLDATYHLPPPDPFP
T1 sequence (Q07001 22-517): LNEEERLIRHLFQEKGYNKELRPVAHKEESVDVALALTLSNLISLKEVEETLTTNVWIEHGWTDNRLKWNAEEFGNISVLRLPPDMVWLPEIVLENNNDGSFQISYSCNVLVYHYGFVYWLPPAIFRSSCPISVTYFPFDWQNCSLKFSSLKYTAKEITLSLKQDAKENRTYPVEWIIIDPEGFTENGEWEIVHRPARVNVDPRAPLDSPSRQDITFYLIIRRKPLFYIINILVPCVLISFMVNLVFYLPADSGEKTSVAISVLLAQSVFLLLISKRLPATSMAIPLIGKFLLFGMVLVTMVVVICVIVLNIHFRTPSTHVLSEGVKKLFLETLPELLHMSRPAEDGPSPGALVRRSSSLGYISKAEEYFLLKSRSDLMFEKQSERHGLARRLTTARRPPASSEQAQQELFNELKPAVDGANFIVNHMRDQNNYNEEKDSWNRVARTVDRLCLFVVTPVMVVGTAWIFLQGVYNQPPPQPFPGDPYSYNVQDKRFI
T1 sequence (P07510 23-517): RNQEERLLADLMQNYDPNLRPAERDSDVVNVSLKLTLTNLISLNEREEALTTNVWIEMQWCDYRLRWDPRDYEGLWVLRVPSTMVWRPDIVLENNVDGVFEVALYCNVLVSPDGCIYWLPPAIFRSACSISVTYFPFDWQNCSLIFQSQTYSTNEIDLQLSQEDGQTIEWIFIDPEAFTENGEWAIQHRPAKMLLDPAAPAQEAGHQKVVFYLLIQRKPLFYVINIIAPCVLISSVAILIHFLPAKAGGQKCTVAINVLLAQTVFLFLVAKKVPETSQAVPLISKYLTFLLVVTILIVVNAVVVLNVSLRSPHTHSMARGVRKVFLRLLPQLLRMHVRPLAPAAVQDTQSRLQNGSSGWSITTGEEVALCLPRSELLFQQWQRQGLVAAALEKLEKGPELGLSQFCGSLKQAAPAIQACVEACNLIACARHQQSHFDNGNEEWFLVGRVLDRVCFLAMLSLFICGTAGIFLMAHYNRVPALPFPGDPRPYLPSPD
Chain of CNS nicotinic receptors (P09483 31-630): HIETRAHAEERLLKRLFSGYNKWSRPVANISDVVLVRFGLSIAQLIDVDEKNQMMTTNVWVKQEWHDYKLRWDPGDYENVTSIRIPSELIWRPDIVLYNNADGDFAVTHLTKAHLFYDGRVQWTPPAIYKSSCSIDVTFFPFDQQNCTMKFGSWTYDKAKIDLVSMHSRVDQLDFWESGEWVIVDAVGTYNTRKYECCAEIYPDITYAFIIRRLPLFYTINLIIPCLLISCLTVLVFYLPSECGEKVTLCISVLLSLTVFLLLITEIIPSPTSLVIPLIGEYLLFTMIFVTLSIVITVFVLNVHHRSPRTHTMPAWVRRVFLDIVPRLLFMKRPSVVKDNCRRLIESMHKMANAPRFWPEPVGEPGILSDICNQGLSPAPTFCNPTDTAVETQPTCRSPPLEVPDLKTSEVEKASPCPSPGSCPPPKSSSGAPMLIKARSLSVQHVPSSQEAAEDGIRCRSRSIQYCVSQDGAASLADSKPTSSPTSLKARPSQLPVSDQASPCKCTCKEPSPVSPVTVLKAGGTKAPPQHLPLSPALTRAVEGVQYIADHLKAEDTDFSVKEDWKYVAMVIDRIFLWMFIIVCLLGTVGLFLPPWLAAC
Chain of CNS nicotinic receptors (P12390 25-500): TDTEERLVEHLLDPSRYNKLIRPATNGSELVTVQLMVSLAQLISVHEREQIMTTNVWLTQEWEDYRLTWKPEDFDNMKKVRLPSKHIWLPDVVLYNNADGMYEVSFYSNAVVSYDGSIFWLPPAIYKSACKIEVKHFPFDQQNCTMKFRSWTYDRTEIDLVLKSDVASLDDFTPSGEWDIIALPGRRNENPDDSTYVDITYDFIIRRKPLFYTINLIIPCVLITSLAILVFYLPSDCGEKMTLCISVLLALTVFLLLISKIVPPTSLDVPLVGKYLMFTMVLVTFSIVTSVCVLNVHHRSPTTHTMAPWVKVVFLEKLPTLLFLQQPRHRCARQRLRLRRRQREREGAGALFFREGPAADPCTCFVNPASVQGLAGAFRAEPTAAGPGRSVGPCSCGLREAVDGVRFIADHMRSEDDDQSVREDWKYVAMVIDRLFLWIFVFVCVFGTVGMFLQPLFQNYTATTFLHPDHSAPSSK

In the case of `CNCC/C=C/c1cncc(OCC(C)C)c1` [Sample No. 6, (3E)-N-methyl-4-(3-(5-isobutoxypyridin)yl)-3-buten-1-amine hemigalactarate], the EC50 with nicotinic receptors stood at 1 µM; in experiment [3] it was 15 µM. The Emax in the experiment with nicotinic receptors (setting [4]) worked out at 15%; in experiment [2] it was 6%; in experiment [3] (setting [5]), 25%. The “Emax at ganglionic-type receptors” value in experiment [1] is on record as 13%.

As to `CNC(C)CC=Cc1ccc[n+]([O-])c1` (centres unmarked) [Sample No. 8, (4E)-N-methyl-5-(3-(1-oxopyridin)yl)-4-penten-2-amine], the Emax in the experiment with Rat brain synaptosomes worked out at 9%; in experiment [2], 0%. Also, in experiment [1], the “Emax at ganglionic-type receptors” value was 8%.

As for `CNC(C)CC=Cc1cncc(O)c1` (centres unmarked) [Sample No. 13, (4E)-N-methyl-5-(3-(5-hydroxypyridin)yl)-4-penten-2-amine sesquioxalate], the Emax worked out at 80% in the experiment with Rat brain synaptosomes and 21% in experiment [2]. Moreover, the “Emax at ganglionic-type receptors” value in experiment [1] came out at 12%.

In experiment [3], `CNCC/C=C/c1cncc(C(=O)NCc2ccccc2)c1` [Sample No. 2, (3E)-N-methyl-N-[3-(5-(N-benzylcarboxamido)pyridin)yl]-3-buten-1-amine] displayed a concentration giving a half-maximal response (EC50) of 100 µM. In addition, the Emax in experiment [3] (setting [5]) is 12%.

Take `CCSc1cncc(/C=C/CCNC)c1` [Sample No. 9, (3E)-N-methyl-4-(3-(5-ethylthiopyridin)yl)-3-buten-1-amine hemigalactarate]: the EC50 in the experiment on nicotinic receptors stood at 0.191 µM; in experiment [3], 0.875 µM. The maximal effect (Emax) was 40% in the experiment with nicotinic receptors (setting [4]), 7% in experiment [2] and 39% in experiment [3] (setting [5]). The “Emax at ganglionic-type receptors” value in experiment [1] was determined as 22%.

Take `CN[C@@H](C)C/C=C/c1cc(OC(C)C)c[n+]([O-])c1` [Sample No. 5]: the Emax with Rat brain synaptosomes amounted to 19%; in experiment [2], 7%. The “Emax at ganglionic-type receptors” value in experiment [1] is on record as 8%.

In the experiment with nicotinic receptors, `CNC(C)CC=Cc1cncc(C(F)(F)F)c1` (centres unmarked) [Sample No. 10, (4E)-N-methyl-5-(3-(5-trifluoromethylpyridin)yl)-4-penten-2-amine] came in with an EC50 of 100 µM. The values for the Emax (in the experiment with nicotinic receptors (setting [4]); in the experiment with Rat brain synaptosomes; in experiment [2]) were 0%, 50% and 0%, respectively. Besides, the “Emax at ganglionic-type receptors” value in experiment [1] was found to be 0%.

The compound `CC(N)CC=Cc1cncc(OC(C)C)c1` (centres unmarked) [Sample No. 12, (4E)-5-(3-(5-isopropoxypyridin)yl)-4-penten-2-amine hemigalactarate] gave an Emax with Rat brain synaptosomes of 32%. Further, the “Emax at ganglionic-type receptors” value in experiment [1] is 5%. Also, in experiment [2] (setting [6]), the Emax at 100 µM came out at 13%.

In turn, `CNCC/C=C/c1cnc(N)c([N+](=O)[O-])c1` [Sample No. 1, (3E)-N-methyl-4-[3-(5-nitro-6-aminopyridin)yl]-3-buten-1-amine] came in with an EC50 on nicotinic receptors of 26 µM. The “Emax in the rubidium ion flux assay” value in the experiment on nicotinic receptors (setting [4]) is 22%. The “neurotransmitter release Emax” value with Rat brain synaptosomes is on record as 33%. For the same compound, on CNS nicotinic receptors, the Ki is 0.003 µM. Further, the “Emax at ganglionic-type receptors” value in experiment [1] was 11% and 16%. Moreover, the “Emax at muscle-type receptors” value in experiment [2] (setting [6]) was 10% and 11%. In experiment [3] (setting [5]), the “Emax for dopamine release” value was determined as 0%.
